Test results as given in patent US20070128217A1 (priority 2003, published 2007).

Assays:
[1] = tested on: control sera (pooled serum of ten healthy LUMC hospital workers; commercial negative donor pooled serum from the Dutch bloodbank); assay type: binding, human; design: Binding of Control serum LUMC to linear peptides / Binding of Control serum Blood-bank to linear peptides / Binding of Control serum LUMC to looped peptides / Binding of Control Serum Blood-Bank to Looped peptides / Binding of Control serum LUMC to linear peptides of the protein M of SARS-CoV Urbani / Binding of Control serum Blood-bank to linear peptides of the protein M of SARS-CoV Urbani / Binding of Control serum LUMC to looped peptides of the protein M of SARS-CoV Urbani / Binding of Control Serum Blood-Bank to Looped peptides of the protein M of SARS-CoV Urbani: unit not given here
[2] = tested on: rabbit serum obtained by immunizing a rabbit with the SARS-CoV strain Frankfurt 1; assay type: binding; design: Binding of a rabbit serum to linear peptides / Binding of a rabbit serum to looped peptides / Rabbit serum linear peptides / Rabbit serum looped peptides / Binding of a rabbit serum to linear peptides of protein N of SARS-CoV Urbani (Rabbit serum linear peptides) / Binding of a rabbit serum to looped/cyclic peptides of protein N of SARS-CoV Urbani (Rabbit serum looped peptides): unit not given here
[3] = tested on: antibodies in sera from SARS patients (sera 1a, 1b, 2, 6, 37, 62, London, SARS-yellow, SARS-green); assay type: binding, human; design: Binding of serum 6 to linear peptides of protein X1 of SARS-CoV Urbani / Binding of serum 37 to linear peptides of protein X1 of SARS-CoV Urbani / Binding of serum 6 to looped/cyclic peptide (PEPSCAN-ELISA) / Binding of serum 37 to looped/cyclic peptide (PEPSCAN-ELISA) / Binding of serum 37 to looped/cyclic peptides of protein X1 of SARS-CoV Urbani / Binding of serum 6 to linear peptides of protein X2 / Binding of serum 37 to linear peptides of protein X2 / Binding of serum 37 to looped/cyclic peptides of protein X2 of SARS-CoV Urbani / Binding of serum 6 to linear peptides of protein M of SARS-CoV Urbani / Binding of serum 37 to linear peptides of protein M of SARS-CoV Urbani / Binding of serum 6 to looped/cyclic peptides of protein M of SARS-CoV Urbani / Binding of serum 37 to looped/cyclic peptides of protein M of SARS-CoV Urbani / Binding of serum 6 to linear peptides of protein X3 of SARS-CoV Urbani / Binding of serum 37 to linear peptides of protein X3 of SARS-CoV Urbani / Binding of serum 37 to looped/cyclic peptides of protein X3 of SARS-CoV Urbani / Binding of serum 6 to linear peptides of protein X4 of SARS-CoV Urbani / Binding of serum 37 to linear peptides of protein X4 of SARS-CoV Urbani / Binding of serum 37 to looped/cyclic peptides of protein X4 of SARS-CoV Urbani / Binding of serum 6 to linear peptides of protein X5 of SARS-CoV Urbani / Binding of serum 37 to linear peptides of protein X5 of SARS-CoV Urbani / Binding of serum 37 to looped/cyclic peptides of protein X5 of SARS-CoV Urbani / Binding of serum 6 to linear peptides of protein N of SARS-CoV Urbani / Binding of serum 37 to linear peptides of protein N of SARS-CoV Urbani / Binding of serum 6 to linear peptide (PEPSCAN-ELISA) / Binding of serum 1a to looped/cyclic peptides of protein N of SARS-CoV Urbani / Binding of serum 1b to looped/cyclic peptides of protein N of SARS-CoV Urbani / Binding of serum 2 to looped/cyclic peptides of protein N of SARS-CoV Urbani / Binding of serum 6 to looped/cyclic peptides of protein N of SARS-CoV Urbani / Binding of serum 37 to looped/cyclic peptides of protein N of SARS-CoV Urbani / Binding of serum 62 to looped/cyclic peptides of protein N of SARS-CoV Urbani / Binding of serum London to looped/cyclic peptides of protein N of SARS-CoV Urbani / Binding of serum SARS-green to looped/cyclic peptides of protein N of SARS-CoV Urbani: unit not given here

## CALGKVLPFHRWHTM
[1]
  Binding of Control Serum Blood-Bank to Looped peptides: 0.4
  Binding of Control serum Blood-bank to linear peptides: 0.8
  Binding of Control serum LUMC to linear peptides: 0.7
  Binding of Control serum LUMC to looped peptides: 0.6
[2]
  Rabbit serum linear peptides: 0.6
  Rabbit serum looped peptides: 1.0
[3]
  Binding of serum 1a to linear peptides of protein X5 of SARS-CoV Urbani: 0.7
  Binding of serum 1a to looped/cyclic peptides of protein X5 of SARS-CoV Urbani: 0.4
  Binding of serum 1b to linear peptides of protein X5 of SARS-CoV Urbani: 0.5
  Binding of serum 1b to looped/cyclic peptides of protein X5 of SARS-CoV Urbani: 0.2
  Binding of serum 2 to linear peptides of protein X5 of SARS-CoV Urbani: 0.7
  Binding of serum 2 to looped/cyclic peptides of protein X5 of SARS-CoV Urbani: 0.6
  Binding of serum 6 to linear peptides of protein X5 of SARS-CoV Urbani: 0.7
  Binding of serum 6 to looped/cyclic peptides of protein X5 of SARS-CoV Urbani: 0.4
  Binding of serum 37 to linear peptides of protein X5 of SARS-CoV Urbani: 0.8
  Binding of serum 37 to looped/cyclic peptides of protein X5 of SARS-CoV Urbani: 0.5
  Binding of serum 62 to linear peptides of protein X5 of SARS-CoV Urbani: 0.7
  Binding of serum 62 to looped/cyclic peptides of protein X5 of SARS-CoV Urbani: 0.3
  Binding of serum London to linear peptides of protein X5 of SARS-CoV Urbani: 0.7
  Binding of serum London to looped/cyclic peptides of protein X5 of SARS-CoV Urbani: 0.2
  Binding of serum SARS-green to linear peptides of protein X5 of SARS-CoV Urbani: 0.7
  Binding of serum SARS-green to looped/cyclic peptides of protein X5 of SARS-CoV Urbani: 0.4
  Binding of serum SARS-yellow to linear peptides of protein X5 of SARS-CoV Urbani: 0.1
  Binding of serum SARS-yellow to looped/cyclic peptides of protein X5 of SARS-CoV Urbani: 0.4

## CELYHYQECVRGTTV
[1]
  Binding of Control Serum Blood-Bank to Looped peptides: 0.5
  Binding of Control serum Blood-bank to linear peptides: 0.5
  Binding of Control serum LUMC to linear peptides: 0.5
  Binding of Control serum LUMC to looped peptides: 0.6
[2]
  Rabbit serum linear peptides: 0.4
  Rabbit serum looped peptides: 0.2
[3]
  Binding of serum 1a to linear peptides of protein X4 of SARS-CoV Urbani: 0.8
  Binding of serum 1a to looped/cyclic peptides of protein X4 of SARS-CoV Urbani: 0.8
  Binding of serum 1b to linear peptides of protein X4 of SARS-CoV Urbani: 0.7
  Binding of serum 1b to looped/cyclic peptides of protein X4 of SARS-CoV Urbani: 0.4
  Binding of serum 2 to linear peptides of protein X4 of SARS-CoV Urbani: 0.5
  Binding of serum 2 to looped/cyclic peptides of protein X4 of SARS-CoV Urbani: 0.8
  Binding of serum 6 to linear peptides of protein X4 of SARS-CoV Urbani: 0.6
  Binding of serum 6 to looped/cyclic peptides of protein X4 of SARS-CoV Urbani: 0.5
  Binding of serum 37 to linear peptides of protein X4 of SARS-CoV Urbani: 0.9
  Binding of serum 37 to looped/cyclic peptides of protein X4 of SARS-CoV Urbani: 0.8
  Binding of serum 62 to linear peptides of protein X4 of SARS-CoV Urbani: 0.8
  Binding of serum 62 to looped/cyclic peptides of protein X4 of SARS-CoV Urbani: 0.6
  Binding of serum London to linear peptides of protein X4 of SARS-CoV Urbani: 0.9
  Binding of serum London to looped/cyclic peptides of protein X4 of SARS-CoV Urbani: 0.3
  Binding of serum SARS-green to linear peptides of protein X4 of SARS-CoV Urbani: 0.7
  Binding of serum SARS-green to looped/cyclic peptides of protein X4 of SARS-CoV Urbani: 0.2
  Binding of serum SARS-yellow to linear peptides of protein X4 of SARS-CoV Urbani: 0.6
  Binding of serum SARS-yellow to looped/cyclic peptides of protein X4 of SARS-CoV Urbani: 0.4

## CINACRIIMRCWLCW
[1]
  Binding of Control Serum Blood-Bank to Looped peptides: 0.8
  Binding of Control serum Blood-bank to linear peptides: 0.7
  Binding of Control serum LUMC to linear peptides: 0.8
  Binding of Control serum LUMC to looped peptides: 0.7
[2]
  Recognition of the peptide by the rabbit serum: recognized
[3]
  Binding of serum 1a to linear peptides of protein X1 of SARS-CoV Urbani: 0.8
  Binding of serum 1a to looped/cyclic peptide (PEPSCAN-ELISA): 0.7
  Binding of serum 1b to linear peptides of protein X1 of SARS-CoV Urbani: 0.5
  Binding of serum 1b to looped/cyclic peptide (PEPSCAN-ELISA): 0.4
  Binding of serum 2 to linear peptides of protein X1 of SARS-CoV Urbani: 0.5
  Binding of serum 2 to looped/cyclic peptide (PEPSCAN-ELISA): 0.6
  Binding of serum 6 to linear peptides of protein X1 of SARS-CoV Urbani: 0.7
  Binding of serum 6 to looped/cyclic peptide (PEPSCAN-ELISA): 0.7
  Binding of serum 37 to linear peptides of protein X1 of SARS-CoV Urbani: 0.6
  Binding of serum 37 to looped/cyclic peptide (PEPSCAN-ELISA): 0.6
  Binding of serum 62 to linear peptides of protein X1 of SARS-CoV Urbani: 0.7
  Binding of serum 62 to looped/cyclic peptide (PEPSCAN-ELISA): 0.7
  Binding of serum London to linear peptides of protein X1 of SARS-CoV Urbani: 0.4
  Binding of serum London to looped/cyclic peptide (PEPSCAN-ELISA): 0.8
  Binding of serum SARS-green to linear peptides of protein X1 of SARS-CoV Urbani: 0.2
  Binding of serum SARS-green to looped/cyclic peptide (PEPSCAN-ELISA): 0.3
  Binding of serum SARS-yellow to linear peptides of protein X1 of SARS-CoV Urbani: 0.4
  Binding of serum SARS-yellow to looped/cyclic peptide (PEPSCAN-ELISA): 0.5

## CIVGLMWLSYFVASF
[1]
  Binding of Control Serum Blood-Bank to Looped peptides of the protein M of SARS-CoV Urbani: 0.6
  Binding of Control serum Blood-bank to linear peptides of the protein M of SARS-CoV Urbani: 0.4
  Binding of Control serum LUMC to linear peptides of the protein M of SARS-CoV Urbani: 0.5
  Binding of Control serum LUMC to looped peptides of the protein M of SARS-CoV Urbani: 0.7
[2]
  Rabbit serum linear peptides: 0.1
  Rabbit serum looped peptides: 0.3
[3]
  Binding of serum 1a to linear peptides of protein M of SARS-CoV Urbani: 0.7
  Binding of serum 1a to looped/cyclic peptides of protein M of SARS-CoV Urbani: 0.5
  Binding of serum 1b to linear peptides of protein M of SARS-CoV Urbani: 0.5
  Binding of serum 1b to looped/cyclic peptides of protein M of SARS-CoV Urbani: 0.2
  Binding of serum 2 to linear peptides of protein M of SARS-CoV Urbani: 0.3
  Binding of serum 2 to looped/cyclic peptides of protein M of SARS-CoV Urbani: 0.4
  Binding of serum 6 to linear peptides of protein M of SARS-CoV Urbani: 0.3
  Binding of serum 6 to looped/cyclic peptides of protein M of SARS-CoV Urbani: 0.4
  Binding of serum 37 to linear peptides of protein M of SARS-CoV Urbani: 0.4
  Binding of serum 37 to looped/cyclic peptides of protein M of SARS-CoV Urbani: 0.6
  Binding of serum 62 to linear peptides of protein M of SARS-CoV Urbani: 0.4
  Binding of serum 62 to looped/cyclic peptides of protein M of SARS-CoV Urbani: 0.4
  Binding of serum London to linear peptides of protein M of SARS-CoV Urbani: 0.3
  Binding of serum London to looped/cyclic peptides of protein M of SARS-CoV Urbani: 0.2
  Binding of serum SARS-green to linear peptides of protein M of SARS-CoV Urbani: 0.3
  Binding of serum SARS-green to looped/cyclic peptides of protein M of SARS-CoV Urbani: 0.0
  Binding of serum SARS-yellow to linear peptides of protein M of SARS-CoV Urbani: 0.1
  Binding of serum SARS-yellow to looped/cyclic peptides of protein M of SARS-CoV Urbani: 0.5

## CKSKNPLLYDANYFV
[1]
  Binding of Control Serum Blood-Bank to Looped peptides: 0.6
  Binding of Control serum Blood-bank to linear peptides: 0.5
  Binding of Control serum LUMC to linear peptides: 0.8
  Binding of Control serum LUMC to looped peptides: 0.8
[2]
  Binding of a rabbit serum to linear peptides: 0.1
  Binding of a rabbit serum to looped peptides: 0.6
[3]
  Binding of serum 1a to linear peptides of protein X1 of SARS-CoV Urbani: 0.8
  Binding of serum 1a to looped/cyclic peptide (PEPSCAN-ELISA): 0.8
  Binding of serum 1b to linear peptides of protein X1 of SARS-CoV Urbani: 0.5
  Binding of serum 1b to looped/cyclic peptide (PEPSCAN-ELISA): 0.6
  Binding of serum 2 to linear peptides of protein X1 of SARS-CoV Urbani: 0.5
  Binding of serum 2 to looped/cyclic peptide (PEPSCAN-ELISA): 0.5
  Binding of serum 6 to linear peptides of protein X1 of SARS-CoV Urbani: 0.6
  Binding of serum 6 to looped/cyclic peptide (PEPSCAN-ELISA): 0.4
  Binding of serum 37 to linear peptides of protein X1 of SARS-CoV Urbani: 0.7
  Binding of serum 37 to looped/cyclic peptide (PEPSCAN-ELISA): 0.8
  Binding of serum 62 to linear peptides of protein X1 of SARS-CoV Urbani: 0.5
  Binding of serum 62 to looped/cyclic peptide (PEPSCAN-ELISA): 0.8
  Binding of serum London to linear peptides of protein X1 of SARS-CoV Urbani: 0.3
  Binding of serum London to looped/cyclic peptide (PEPSCAN-ELISA): 0.2
  Binding of serum SARS-green to linear peptides of protein X1 of SARS-CoV Urbani: 0.2
  Binding of serum SARS-green to looped/cyclic peptide (PEPSCAN-ELISA): 0.3
  Binding of serum SARS-yellow to linear peptides of protein X1 of SARS-CoV Urbani: 0.2
  Binding of serum SARS-yellow to looped/cyclic peptide (PEPSCAN-ELISA): 0.5
